Data published in the NIST ThermoML archive (doi:10.1021/je0501843).
± gives the expanded uncertainty stated by the source.

Experiment: wn = mass fraction of the nth substance listed
Conditions: Fluid (supercritical or subcritical phases), isochoric method, w1 = 0.5001

FC(F)C(F)(F)F [pentafluoroethane] + FCF
mass density (301 K, 4414 kPa): 1071.2 ± 2.2 kg/m3 | mass density (302 K, 4977 kPa): 1071 ± 2.2 kg/m3 | mass density (303 K, 5537 kPa): 1070.9 ± 2.2 kg/m3 | mass density (303 K, 5540 kPa): 1070.9 ± 2.2 kg/m3 | mass density (304 K, 6101 kPa): 1070.8 ± 2.2 kg/m3 | mass density (304 K, 6103 kPa): 1070.8 ± 2.2 kg/m3 | mass density (305 K, 6663 kPa): 1070.6 ± 2.2 kg/m3 | mass density (306 K, 7227 kPa): 1070.5 ± 2.2 kg/m3 | mass density (306 K, 7228 kPa): 1070.5 ± 2.2 kg/m3 | mass density (307 K, 7791 kPa): 1070.4 ± 2.2 kg/m3 | mass density (307 K, 7792 kPa): 1070.4 ± 2.2 kg/m3 | mass density (308 K, 8356 kPa): 1070.2 ± 2.2 kg/m3 | mass density (308 K, 8357 kPa): 1070.2 ± 2.2 kg/m3 | mass density (309 K, 8918 kPa): 1070.1 ± 2.2 kg/m3 | mass density (310 K, 9482 kPa): 1070 ± 2.2 kg/m3 | mass density (310 K, 9484 kPa): 1070 ± 2.2 kg/m3 | mass density (311 K, 10048 kPa): 1069.8 ± 2.2 kg/m3 | mass density (311 K, 10049 kPa): 1069.8 ± 2.2 kg/m3 | mass density (312 K, 10614 kPa): 1069.7 ± 2.2 kg/m3 | mass density (312 K, 10615 kPa): 1069.7 ± 2.2 kg/m3 | mass density (313 K, 11178 kPa): 1069.6 ± 2.2 kg/m3 | mass density (313 K, 11179 kPa): 1069.6 ± 2.2 kg/m3 | mass density (314 K, 11741 kPa): 1069.4 ± 2.2 kg/m3 | mass density (314 K, 11743 kPa): 1069.4 ± 2.2 kg/m3 | mass density (315 K, 12309 kPa): 1069.3 ± 2.2 kg/m3 | mass density (316 K, 12875 kPa): 1069.2 ± 2.2 kg/m3 | mass density (316 K, 12877 kPa): 1069.2 ± 2.2 kg/m3 | mass density (317 K, 13440 kPa): 1069 ± 2.2 kg/m3 | mass density (318 K, 14003 kPa): 1068.9 ± 2.2 kg/m3 | mass density (318 K, 14005 kPa): 1068.9 ± 2.2 kg/m3 | mass density (319 K, 14570 kPa): 1068.8 ± 2.2 kg/m3 | mass density (319 K, 14571 kPa): 1068.8 ± 2.2 kg/m3 | mass density (320 K, 15135 kPa): 1068.6 ± 2.2 kg/m3 | mass density (320 K, 15137 kPa): 1068.6 ± 2.2 kg/m3 | mass density (321 K, 15700 kPa): 1068.5 ± 2.2 kg/m3 | mass density (321 K, 15701 kPa): 1068.5 ± 2.2 kg/m3 | mass density (322 K, 16263 kPa): 1068.4 ± 2.2 kg/m3 | mass density (322 K, 16265 kPa): 1068.4 ± 2.2 kg/m3 | mass density (323 K, 16830 kPa): 1068.2 ± 2.2 kg/m3 | mass density (324 K, 17394 kPa): 1068.1 ± 2.2 kg/m3 | mass density (324 K, 17396 kPa): 1068.1 ± 2.2 kg/m3 | mass density (325 K, 5448 kPa): 946.2 ± 2 kg/m3 | mass density (325 K, 17959 kPa): 1068 ± 2.2 kg/m3 | mass density (325 K, 17961 kPa): 1068 ± 2.2 kg/m3 | mass density (326 K, 5835 kPa): 946.1 ± 1.9 kg/m3 | mass density (326 K, 5836 kPa): 946.1 ± 1.9 kg/m3 | mass density (326 K, 18524 kPa): 1067.8 ± 2.2 kg/m3 | mass density (326 K, 18525 kPa): 1067.8 ± 2.2 kg/m3 | mass density (327 K, 6224 kPa): 946 ± 1.9 kg/m3 | mass density (327 K, 6225 kPa): 946 ± 1.9 kg/m3 | mass density (327 K, 19088 kPa): 1067.7 ± 2.2 kg/m3 | mass density (327 K, 19090 kPa): 1067.7 ± 2.2 kg/m3 | mass density (328 K, 6615 kPa): 945.9 ± 1.9 kg/m3 | mass density (328 K, 6616 kPa): 945.9 ± 1.9 kg/m3 | mass density (328 K, 19652 kPa): 1067.6 ± 2.2 kg/m3 | mass density (328 K, 19655 kPa): 1067.6 ± 2.2 kg/m3 | mass density (329 K, 7006 kPa): 945.8 ± 1.9 kg/m3 | mass density (329 K, 7007 kPa): 945.8 ± 1.9 kg/m3 | mass density (330 K, 7397 kPa): 945.7 ± 1.9 kg/m3 | mass density (330 K, 7399 kPa): 945.7 ± 1.9 kg/m3 | mass density (331 K, 7788 kPa): 945.6 ± 1.9 kg/m3 | mass density (331 K, 7790 kPa): 945.6 ± 1.9 kg/m3 | mass density (332 K, 8183 kPa): 945.5 ± 1.9 kg/m3 | mass density (332 K, 8184 kPa): 945.5 ± 1.9 kg/m3 | mass density (333 K, 8579 kPa): 945.4 ± 1.9 kg/m3 | mass density (334 K, 8970 kPa): 945.4 ± 1.9 kg/m3 | mass density (334 K, 8971 kPa): 945.4 ± 1.9 kg/m3 | mass density (335 K, 9364 kPa): 945.3 ± 1.9 kg/m3 | mass density (336 K, 9759 kPa): 945.2 ± 1.9 kg/m3 | mass density (337 K, 10156 kPa): 945.1 ± 1.9 kg/m3 | mass density (337 K, 10157 kPa): 945.1 ± 1.9 kg/m3 | mass density (338 K, 6179 kPa): 859.9 ± 1.8 kg/m3 | mass density (338 K, 10552 kPa): 945 ± 1.9 kg/m3 | mass density (338 K, 10553 kPa): 945 ± 1.9 kg/m3 | mass density (339 K, 6478 kPa): 859.9 ± 1.8 kg/m3 | mass density (339 K, 10948 kPa): 944.9 ± 1.9 kg/m3 | mass density (340 K, 6782 kPa): 859.8 ± 1.8 kg/m3 | mass density (340 K, 11344 kPa): 944.8 ± 1.9 kg/m3 | mass density (340 K, 11346 kPa): 944.8 ± 1.9 kg/m3 | mass density (341 K, 7089 kPa): 859.7 ± 1.7 kg/m3 | mass density (341 K, 11743 kPa): 944.7 ± 1.9 kg/m3 | mass density (341 K, 11745 kPa): 944.7 ± 1.9 kg/m3 | mass density (342 K, 7389 kPa): 859.6 ± 1.8 kg/m3 | mass density (342 K, 12139 kPa): 944.6 ± 1.9 kg/m3 | mass density (342 K, 12142 kPa): 944.6 ± 1.9 kg/m3 | mass density (343 K, 7693 kPa): 859.6 ± 1.8 kg/m3 | mass density (343 K, 12536 kPa): 944.5 ± 1.9 kg/m3 | mass density (343 K, 12538 kPa): 944.5 ± 1.9 kg/m3 | mass density (344 K, 7998 kPa): 859.5 ± 1.7 kg/m3 | mass density (344 K, 12935 kPa): 944.4 ± 1.9 kg/m3 | mass density (344 K, 12936 kPa): 944.4 ± 1.9 kg/m3 | mass density (345 K, 8306 kPa): 859.4 ± 1.7 kg/m3 | mass density (345 K, 13334 kPa): 944.3 ± 1.9 kg/m3 | mass density (346 K, 8612 kPa): 859.3 ± 1.7 kg/m3 | mass density (346 K, 13733 kPa): 944.2 ± 1.9 kg/m3 | mass density (347 K, 6281 kPa): 761.1 ± 1.6 kg/m3 | mass density (347 K, 8917 kPa): 859.3 ± 1.7 kg/m3 | mass density (347 K, 14131 kPa): 944.1 ± 1.9 kg/m3
